Reference: patent publication US20260125360A1, “HERBICIDAL IMIDAZOLE COMPOUNDS” (SYNGENTA CROP PROTECTION AG, priority 2022, published 2026)

Key:
Type in all cases: in vivo
Conditions in all cases: 250 g/ha, evaluated after 13 days
[1] = test system: Ipomoea hederacea (IPOHE); experiment: Pre-emergence herbicide glasshouse test
Outline: (§1)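 Species sown in standard soil and sprayed 1 day (pre-emergence) or 8 days (post-emergence) after sowing, at 250 g/ha unless noted, in acetone/water (50:50) with 0.5% Tween 20. Glasshouse at 24/16 °C day/night, 14 h light, 65% humidity. Percentage damage scored after 13 days on a 1–5 scale (5=81–100%, 1=0–20%).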

[2] = test system: Amaranthus retoflexus (AMARE); experiment: Pre-emergence herbicide glasshouse test
Outline: as §1

[3] = test system: Echinochloa crus-galli (ECHCG); experiment: Pre-emergence herbicide glasshouse test
Outline: as §1

[4] = test system: Amaranthus palmeri (AMAPA); experiment: Pre-emergence herbicide glasshouse test
Outline: as §1

[5] = test system: Ipomoea hederacea (IPOHE); experiment: Post-emergence herbicide glasshouse test
Outline: as §1

[6] = test system: Amaranthus retoflexus (AMARE); experiment: Post-emergence herbicide glasshouse test
Outline: as §1

[7] = test system: Echinochloa crus-galli (ECHCG); experiment: Post-emergence herbicide glasshouse test
Outline: as §1

[8] = test system: Amaranthus palmeri (AMAPA); experiment: Post-emergence herbicide glasshouse test
Outline: as §1

SMILES	percentage damage caused to the plant, IPOHE (five-point scale) [1]	percentage damage caused to the plant, AMARE (five-point scale) [2]	percentage damage caused to the plant, ECHCG (five-point scale) [3]	percentage damage caused to the plant, AMAPA (five-point scale) [4]	percentage damage caused to the plant, IPOHE (five-point scale) [5]	percentage damage caused to the plant, AMARE (five-point scale) [6]	percentage damage caused to the plant, ECHCG (five-point scale) [7]	percentage damage caused to the plant, AMAPA (five-point scale) [8]
Cn1cnc(Cn2cc(C(F)(F)F)nc2-c2ccc(C(F)(F)F)cc2)n1 [Compound 1.003, 1-methyl-3-[[4-(trifluoromethyl)-2-[4-(trifluoromethyl)phenyl]imidazol-1-yl]methyl]-1,2,4-triazole]	5 (5=81-100%)	5 (5=81-100%)	5 (5=81-100%)	5 (5=81-100%)	5 (5=81-100%)	4 (4=61-80%)	4 (4=61-80%)	4 (4=61-80%)
Cc1nnc(Cn2cc(C(F)(F)F)nc2-c2ccc([S+](C)[O-])cc2)s1 (centres unmarked) [Compound 1.178]	4 (4=61-80%)	3 (3=41-60%)	1 (1=0-20%)	3 (3=41-60%)	1 (1=0-20%)	1 (1=0-20%)	1 (1=0-20%)	1 (1=0-20%)
Cn1cc(Cn2cc(C(F)(F)F)nc2-c2ccc(Cl)nc2)nn1 [Compound 1.057]	5 (5=81-100%)	5 (5=81-100%)	4 (4=61-80%)	5 (5=81-100%)	4 (4=61-80%)	4 (4=61-80%)	4 (4=61-80%)	4 (4=61-80%)
FC(F)(F)c1cn(Cc2ccc(Cl)s2)c(-c2ccc(Cl)nc2)n1 [Compound 1.117]	1 (1=0-20%)	5 (5=81-100%)	1 (1=0-20%)	5 (5=81-100%)	2 (2=21-40%)	5 (5=81-100%)	1 (1=0-20%)	5 (5=81-100%)
N#Cc1ccc(Cn2cc(C(F)(F)F)nc2-c2ccc(C(F)(F)F)cc2)s1 [Compound 1.001]	2 (2=21-40%)	4 (4=61-80%)	2 (2=21-40%)	5 (5=81-100%)	3 (3=41-60%)	4 (4=61-80%)	2 (2=21-40%)	4 (4=61-80%)
Cn1ccc(Cn2cc(C(F)(F)F)nc2-c2ccc(Cl)nc2)n1 [Compound 1.045]	5 (5=81-100%)	5 (5=81-100%)	1 (1=0-20%)	5 (5=81-100%)	4 (4=61-80%)	5 (5=81-100%)	1 (1=0-20%)	5 (5=81-100%)
CCn1cc(Cl)c(Cn2cc(C(F)(F)F)nc2-c2ccc(Cl)nc2)n1 [Compound 1.100]	1 (1=0-20%)	1 (1=0-20%)	1 (1=0-20%)	1 (1=0-20%)	1 (1=0-20%)	1 (1=0-20%)	1 (1=0-20%)	1 (1=0-20%)
CON=Cc1cn(Cc2ncn(C)n2)c(-c2cnc(Cl)c(F)c2)n1 [Compound 1.180]	5 (5=81-100%)	5 (5=81-100%)	1 (1=0-20%)	4 (4=61-80%)	4 (4=61-80%)	1 (1=0-20%)	1 (1=0-20%)	2 (2=21-40%)
Fc1cc(-c2nc(C(F)(F)F)cn2Cc2cc(C3CC3)on2)cnc1Cl [Compound 1.028]	4 (4=61-80%)	5 (5=81-100%)	1 (1=0-20%)	5 (5=81-100%)	1 (1=0-20%)	4 (4=61-80%)	1 (1=0-20%)	3 (3=41-60%)
CCON=Cc1cn(Cc2ncn(C)n2)c(-c2cnc(Cl)c(F)c2)n1 [Compound 1.172]	5 (5=81-100%)	5 (5=81-100%)	5 (5=81-100%)	5 (5=81-100%)	2 (2=21-40%)	3 (3=41-60%)	2 (2=21-40%)	2 (2=21-40%)
